From US20240301319A1, “PERFUMING COMPOSITIONS” (FIRMNICH SA, priority 2017, published 2024)
Counter-ions that a name gives are not always drawn. Values belong to the compound of their own block, whether it stands above or below them.

Experiments:
[1] = Volatility of perfuming compounds (Tables 4 to 10), with top/middle/bottom note type; format: physicochemical
In short: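 Note type follows from air volatility (μg/l): bottom 49–0.1, middle 99–50, top 70,000–100. Compounds are listed within watery, green, fruity, citrus, sweet, gourmand and woody families.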

[2] = Odor threshold and odor value of perfuming compounds (Tables 4 to 10)
[3] = note type (Top/Middle/Bottom) by volatility, perfuming compounds having a green note
[4] = perfuming compounds having a green note
[5] = Table 6, perfuming compounds having a fruity note
[6] = Table 6, perfuming compounds having a fruity note, note type by volatility
[7] = Table 7, citrus note, top, middle or bottom note
[8] = Table 7, citrus note, equals volatility divided by odor threshold
[9] = Table 8, perfuming compounds having a sweet note
[10] = Table 8, perfuming compounds having a sweet note, note type by volatility
[11] = Table 4, watery note, top, middle or bottom note
[12] = Table 4, watery note, equals volatility divided by odor threshold
[13] = Table 9, perfuming compounds having a gourmand note, note type by volatility
[14] = Table 10, perfuming compounds having a woody note, note type by volatility

Structure (SMILES): CC(=O)OC(c1ccccc1)C(Cl)(Cl)Cl (racemic) [(+−)-2,2,2-TRICHLORO-1-PHENYLETHYL ACETATE]
- Volatility [1, 5]: 11.96 μg/l air
- Type [1, 6]: Bottom
- Volatility (μg/l air) ([1]; Table 7, citrus note): 11.96 μg/l air
- Type [1, 7]: Bottom
- Odor Threshold [2, 5]: 1.15E−03 μg/l air
- Odor Value [2, 5]: 1.04E+04
- Odor Threshold (μg/l air) ([2]; Table 7, citrus note): 1.15E−03 μg/l air
- Odor Value [2, 8]: 1.04E+04

Structure (SMILES): CCCCCC1CCCC1O (racemic) [(+−)-2-PENTYL-1-CYCLOPENTANOL]
- Volatility [1, 9]: 97.79 μg/l air
- Type [1, 10]: Middle
- Odor Threshold [2, 9]: 5.43E−03 μg/l air
- Odor Value [2, 9]: 1.80E+04

Structure (SMILES): CCCCCC1CCCC1=O (racemic) [(+−)-2-pentylcyclopentanone]
- Volatility [1, 5]: 560.22 μg/l air
- Type [1, 6]: TOP (perfuming compounds having a volatility ranging from 70,000 to 100 μg/l in air are referred to as “top notes”)
- Volatility [1, 9]: 560.22 μg/l air
- Type [1, 10]: Top
- Volatility ([1]; Table 9, gourmand note): 560.22 μg/l air
- Type [1, 13]: Top
- Odor Threshold [2, 9]: 1.28E−03 μg/l air
- Odor Value [2, 9]: 4.38E+05
- Odor Threshold ([2]; Table 9, gourmand note): 1.28E−03 μg/l air

Structure (SMILES): CCCCCC(C#N)CCC (racemic) [(+−)-2-propylheptanenitrile]
- Volatility [1, 5]: 439.00 μg/l air
- Type [1, 6]: TOP (perfuming compounds having a volatility ranging from 70,000 to 100 μg/l in air are referred to as “top notes”)
- Volatility (μg/l air) ([1]; Table 7, citrus note): 439.00 μg/l air
- Type [1, 7]: Top
- Odor Threshold (μg/l air) ([2]; Table 7, citrus note): 7.83E−02 μg/l air
- Odor Value [2, 8]: 5.61E+03

Structure (SMILES): CC(C=O)Cc1ccc2c(c1)OCO2 (racemic) [(+−)-3-(1,3-BENZODIOXOL-5-YL)-2-METHYLPROPANAL]
- Volatility (μg/l air) ([1]; Table 4, watery note): 3.57 μg/l air
- Type [1, 11]: bottom (perfuming compounds having a volatility ranging from 49 to 0.1 μg/l in air are referred to as “bottom notes”)
- Odor Threshold (μg/l air) ([2]; Table 4, watery note): 2.23E−04 μg/l air
- Odor Value [2, 12]: 1.60E+04

Structure (SMILES): CCCCCCC1CCC(=O)O1 (racemic) [(+−)-4-DECANOLIDE]
- Volatility [1, 5]: 10.49 μg/l air
- Type [1, 6]: Bottom
- Volatility [1, 9]: 10.49 μg/l air
- Type [1, 10]: Bottom
- Volatility ([1]; Table 9, gourmand note): 10.49 μg/l air
- Type [1, 13]: Bottom
- Odor Threshold [2, 5]: 1.61E−04 μg/l air
- Odor Value [2, 5]: 6.51E+04
- Odor Threshold [2, 9]: 1.61E−04 μg/l air
- Odor Value [2, 9]: 6.51E+04
- Odor Threshold ([2]; Table 9, gourmand note): 1.61E−04 μg/l air

Structure (SMILES): CCCC1CCC(=O)O1 (racemic) [(+−)-4-HEPTANOLIDE]
- Volatility [1, 9]: 295.34 μg/l air
- Type [1, 10]: Top
- Odor Threshold [2, 9]: 5.18E−04 μg/l air
- Odor Value [2, 9]: 5.70E+05

Structure (SMILES): CCCCCC1CCC(=O)O1 (racemic) [(+−)-4-NONANOLIDE]
- Volatility [1, 5]: 27.42 μg/l air
- Type [1, 6]: Bottom
- Volatility ([1]; Table 9, gourmand note): 27.42 μg/l air
- Type [1, 13]: Bottom
- Odor Threshold [2, 5]: 1.45E−04 μg/l air
- Odor Value [2, 5]: 1.89E+05
- Odor Threshold ([2]; Table 9, gourmand note): 1.45E−04 μg/l air

Structure (SMILES): CCCCCCCCC1CCC(=O)O1 (racemic) [(+−)-5-octyldihydro-2(3H)-furanone]
- Volatility [1, 5]: 1.44 μg/l air
- Type [1, 6]: Bottom
- Odor Threshold [2, 5]: 2.85E−05 μg/l air
- Odor Value [2, 5]: 5.05E+04

Structure (SMILES): CCCCCCCC1CCCC(=O)O1 (racemic) [(+−)-6-heptyltetrahydro-2H-pyran-2-one]
- Volatility [1, 5]: 0.90 μg/l air
- Type [1, 6]: Bottom
- Volatility [1, 9]: 0.90 μg/l air
- Type [1, 10]: Bottom
- Volatility ([1]; Table 9, gourmand note): 0.90 μg/l air
- Type [1, 13]: Bottom
- Odor Threshold [2, 5]: 1.27E−04 μg/l air
- Odor Value [2, 5]: 7.06E+03
- Odor Threshold [2, 9]: 1.27E−04 μg/l air
- Odor Value [2, 9]: 7.06E+03
- Odor Threshold ([2]; Table 9, gourmand note): 1.27E−04 μg/l air

Structure (SMILES): CCCCCC1CCCC(=O)O1 (racemic) [(+−)-6-pentyltetrahydro-2H-pyran-2-one]
- Volatility [1, 5]: 9.61 μg/l air
- Type [1, 6]: Bottom
- Volatility [1, 9]: 9.61 μg/l air
- Type [1, 10]: Bottom
- Volatility ([1]; Table 9, gourmand note): 9.61 μg/l air
- Type [1, 13]: Bottom
- Odor Threshold [2, 5]: 3.72E−05 μg/l air
- Odor Value [2, 5]: 2.58E+05
- Odor Threshold [2, 9]: 3.72E−05 μg/l air
- Odor Value [2, 9]: 2.58E+05
- Odor Threshold ([2]; Table 9, gourmand note): 3.72E−05 μg/l air

Structure (SMILES): CCCC1CCCC(=O)O1 (racemic) [(+−)-6-propyltetrahydro-2H-pyran-2-one]
- Volatility [1, 5]: 57.43 μg/l air
- Type [1, 6]: Middle
- Volatility (μg/l air) ([1]; Table 7, citrus note): 57.43 μg/l air
- Type [1, 7]: Middle
- Odor Threshold [2, 5]: 2.17E−04 μg/l air
- Odor Value [2, 5]: 2.65E+05
- Odor Threshold (μg/l air) ([2]; Table 7, citrus note): 2.17E−04 μg/l air
- Odor Value [2, 8]: 2.65E+05

Structure (SMILES): CCOC(C)OC1CCCCCCCCCCC1 (racemic) [(+−)-(1-ethoxyethoxy)cyclododecane]
- Type [1, 14]: Bottom
- Volatility ([1]; Table 10, woody note): 5.04 μg/l air
- Odor Threshold ([2]; Table 10, woody note): 2.51E−02 μg/l air

More lines, main results first:

- Type [1, 3]: Top
- Volatility (μg/l air) [1, 4]: 3030.11 μg/l air
Structure (SMILES): C=CC(O)CCCCC (racemic) [(+−)-1-octen-3-ol]
- Odor Threshold (μg/l air) [2, 4]: 1.77E−03 μg/l air

- Volatility (μg/l air) ([1]; Table 4, watery note): 12.86 μg/l air
Structure (SMILES): CC(C=O)Cc1ccc(C(C)(C)C)cc1 (racemic) [(+−)-2-methyl-3-[4-(2-methyl-2-propanyl)phenyl]propanal]
- Type [1, 11]: bottom (perfuming compounds having a volatility ranging from 49 to 0.1 μg/l in air are referred to as “bottom notes”)
- Odor Threshold (μg/l air) ([2]; Table 4, watery note): 2.39E−04 μg/l air
- Odor Value [2, 12]: 5.38E+04

- Volatility (μg/l air) ([1]; Table 4, watery note): 297.74 μg/l air
Structure (SMILES): CCCCCCCCC(C)C=O (racemic) [(+−)-2-methyldecanal″]
- Type [1, 11]: TOP (perfuming compounds having a volatility ranging from 70,000 to 100 μg/l in air are referred to as “top notes”)
- Odor Threshold (μg/l air) ([2]; Table 4, watery note): 9.00E−04 μg/l air
- Odor Value [2, 12]: 3.31E+05

- Volatility (μg/l air) ([1]; Table 4, watery note): 75.55 μg/l air
Structure (SMILES): CCCCCCCCCC(C)C=O (racemic) [(+−)-2-methylundecanal]
- Type [1, 11]: middle (perfuming compounds having a volatility ranging from 99 to 50 μg/l in air are referred to as “middle notes”)
- Odor Threshold (μg/l air) ([2]; Table 4, watery note): 7.24E−05 μg/l air
- Odor Value [2, 12]: 1.04E+06

- Type [1, 3]: Top
- Volatility (μg/l air) [1, 4]: 142.19 μg/l air
Structure (SMILES): CC(CO)c1ccccc1 (racemic) [(+−)-2-phenyl-1-propanol]
- Odor Threshold (μg/l air) [2, 4]: 3.62E−02 μg/l air

- Type [1, 3]: Top
- Volatility (μg/l air) [1, 4]: 12045.92 μg/l air
Structure (SMILES): CC(CC=O)CC(C)(C)C (racemic) [(+−)-3,5,5-TRIMETHYLHEXANAL]
- Odor Threshold (μg/l air) [2, 4]: 9.37E−03 μg/l air

- Volatility [1, 5]: 262.84 μg/l air
- Type [1, 3]: Top
- Volatility (μg/l air) [1, 4]: 262.84 μg/l air
Structure (SMILES): CC(C)=CCCC(C)CCOC=O (racemic) [(+−)-3,7-DIMETHYL-6-OCTENYL FORMATE]
- Type [1, 6]: TOP (perfuming compounds having a volatility ranging from 70,000 to 100 μg/l in air are referred to as “top notes”)
- Odor Threshold (μg/l air) [2, 4]: 1.72E−03 μg/l air

- Volatility [1, 5]: 896.72 μg/l air
- Volatility (μg/l air) ([1]; Table 7, citrus note): 896.72 μg/l air
- Type [1, 7]: Top
Structure (SMILES): C=CC(C)(O)CCC=C(C)C (racemic) [(+−)-3,7-dimethyl-1,6-octadien-3-ol]
- Type [1, 6]: TOP (perfuming compounds having a volatility ranging from 70,000 to 100 μg/l in air are referred to as “top notes”)
- Odor Threshold (μg/l air) ([2]; Table 7, citrus note): 8.89E−05 μg/l air
- Odor Value [2, 8]: 1.01E+07

- Volatility (μg/l air) ([1]; Table 4, watery note): 14.74 μg/l air
- Type [1, 3]: Bottom
- Volatility (μg/l air) [1, 4]: 14.74 μg/l air
Structure (SMILES): CC(C)c1cccc(C(C)CC=O)c1 (racemic) [(+−)-3-(3-ISOPROPYL-1-PHENYL)BUTANAL]
- Type [1, 11]: bottom (perfuming compounds having a volatility ranging from 49 to 0.1 μg/l in air are referred to as “bottom notes”)
- Odor Threshold (μg/l air) ([2]; Table 4, watery note): 7.71E−04 μg/l air
- Odor Value [2, 12]: 1.91E+04
- Odor Threshold (μg/l air) [2, 4]: 7.71E−04 μg/l air

- Volatility (μg/l air) ([1]; Table 4, watery note): 24.85 μg/l air
Structure (SMILES): CC(C=O)Cc1ccc(C(C)C)cc1 (racemic) [(+−)-3-(4-isopropylphenyl)-2-methylpropanal]
- Type [1, 11]: bottom (perfuming compounds having a volatility ranging from 49 to 0.1 μg/l in air are referred to as “bottom notes”)
- Odor Threshold (μg/l air) ([2]; Table 4, watery note): 3.00E−03 μg/l air
- Odor Value [2, 12]: 8.28E+03

- Volatility (μg/l air) ([1]; Table 4, watery note): 18.99 μg/l air
- Type [1, 3]: Bottom
- Volatility (μg/l air) [1, 4]: 18.99 μg/l air
Structure (SMILES): COc1ccc(CC(C)C=O)cc1 (racemic) [(+−)-3-(4-methoxyphenyl)-2-methylpropanal]
- Type [1, 11]: bottom (perfuming compounds having a volatility ranging from 49 to 0.1 μg/l in air are referred to as “bottom notes”)
- Odor Threshold (μg/l air) ([2]; Table 4, watery note): 9.79E−03 μg/l air
- Odor Value [2, 12]: 1.94E+03
- Odor Threshold (μg/l air) [2, 4]: 9.79E−03 μg/l air

- Volatility [1, 5]: 421.09 μg/l air
- Type [1, 3]: Top
- Volatility (μg/l air) [1, 4]: 421.09 μg/l air
Structure (SMILES): CCCC(S)CCOC(C)=O (racemic) [(+−)-3-mercaptohexyl acetate]
- Type [1, 6]: TOP (perfuming compounds having a volatility ranging from 70,000 to 100 μg/l in air are referred to as “top notes”)
- Odor Threshold (μg/l air) [2, 4]: 2.72E−06 μg/l air

- Volatility (μg/l air) ([1]; Table 4, watery note): 12.81 μg/l air
Structure (SMILES): CC(CC=O)CCCC(C)(C)O (racemic) [(+−)-7-hydroxy-3,7-dimethyloctanal]
- Type [1, 11]: bottom (perfuming compounds having a volatility ranging from 49 to 0.1 μg/l in air are referred to as “bottom notes”)
- Odor Threshold (μg/l air) ([2]; Table 4, watery note): 6.98E−03 μg/l air
- Odor Value [2, 12]: 1.84E+03

- Type [1, 14]: Bottom
- Volatility ([1]; Table 10, woody note): 42.22 μg/l air
Structure (SMILES): CO[C@]1(C)CC[C@@]23C[C@@H]1C(C)(C)[C@@H]2CC[C@H]3C (racemic) [(+−)-8-methoxycedrane]
- Odor Threshold ([2]; Table 10, woody note): 2.09E−02 μg/l air
